Test results taken from patent US20240158418A1 (C4 Therapeutics, Inc., priority 2021, published 2024).
Like-named read-outs stand apart in the source and are kept apart here.

How the values were obtained:
Assay type in all cases: cell-based
EGFR L858R-T790M = target: T1, EGFR L858R-T790M (Homo sapiens, UniProt P00533, L858R/T790M); experiment: EGFR degradation, Total EGFR (L858R-specific) HTRF, NCI-H1975; conditions: 6 hours
T1 construct: NCI-H1975 (harboring EGFR heterozygous L858R-T790M mutations); host or cells: NCI-H1975
How it was run: (§1)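 HTRF read-outs: pY1068 phospho-EGFR for IC50; total EGFR (pan-EGFR in A431, L858R-specific in mutant lines) for DC50. Compounds were titrated 11 points, half-log, from 10 μM in duplicate onto cells in 10% FBS RPMI, incubated 6 h at 37°C.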

pY1068 EGFR L858R-T790M = target: T2, pY1068 EGFR L858R-T790M (Homo sapiens, UniProt P00533, L858R/T790M); experiment: Phospho-EGFR (pY1068) inhibition HTRF, NCI-H1975; conditions: 6 hours, read-out: pEGFR IC50
T2 construct: NCI-H1975 (harboring EGFR heterozygous L858R-T790M mutations); host or cells: NCI-H1975
Source text: (§2) NCI-H1975 (harboring EGFR heterozygous L858R-T790M mutations) and NCI-H3255 (harboring EGFR heterozygous L858R mutation) were purchased from ATCC and NCI, respectively. NCI-H1975+CS (harboring EGFR heterozygous L858R-T790M-C797S mutations) was generated using CRISPR technology to introduce the additional C797S mutation by Horizon Discovery. A431 (harboring EGFR wildtype) was purchased from ATCC. RPMI 1640 no-phenol red medium and fetal bovine serum (FBS) were purchased from Gibco (Grand Island, NY, USA). Cell culture flasks and 384-well microplates were acquired from VWR (Radnor, PA, USA). Phosphorylated (pY1068) EGFR and Total EGFR (using L858R-specific detection antibody and pan-EGFR antibody for EGFR mutant cell lines and EGFR wild-type cell lines, respectively) HTRF assay kits were purchased from Cisbio (Bedford, MA, USA).
(§3) Degradation of EGFR protein containing L858R mutation or wild-type was determined based on quantification of FRET signal using a Total EGFR (L858R-specific or pan-EGFR detecting) HTRF assay kit. Phospho-EGFR (pEGFR) inhibition was determined based on quantification of FRET signal using a pY1068 EGFR HTRF assay kit. In separate assay plates, test compounds were added to the 384-well plate from a top concentration of 10 μM with 11 points, half log titration in duplicates. For each assay, 12.5 uL of cells suspended in assay media (RPMI 1640 no-phenol red medium+10% FBS) at cell densities indicated for each cell line in Table 8 below were dispensed using a multi-channel pipette to 384-well low volume white HTRF microplates containing a duplicate concentration range of test compounds and DMSO controls. The plates were kept at 37° C. with 5% CO2 for 6 hours and then incubated with either phospho EGFR or Total EGFR HTRF detection antibodies according to the cell line and EGFR mutant being assayed. Cells treated in the absence of the test compound were the negative control. Positive control was set by wells containing all reagents but no cells. FRET signal was acquired on EnVision™ Multilabel Reader (PerkinElmer, Santa Clara, CA, USA). Compound concentration that achieves 50% degradation and inhibition was reported as DC50 and IC50, respectively.

[1] = test system: BaF3 cells expressing EGFR L858R-T790M-C797S; experiment: Ba/F3 EGFR cell viability (CellTiter-Glo), L858R-T790M-C797S; conditions: Mus musculus, read-out: CTGlo (GI50)
Source text: (§4) RPMI 1640 media, cell culture flasks, and 384-well microplates were purchased from VWR (Radnor, PA, USA). Fetal bovine serum (FBS) was purchased from Life Technologies (Carlsbad, CA, USA) and CellTiter-Glo® was purchased from Promega (Madison, WI, USA). The Ba/F3 parental cell line was purchased from CrownBio (Santa Clara, CA). BaF3 cell lines ectopically expressing the EGFR mutations L858R, L858R-T790M, L858R-C797S, and L858R-T790M-C797S were purchased from CrownBio and EGFR mutations L858R-L718Q, L858R-T790M-L718Q, L858R-L792H, and L858R-T790M-L792H, were purchased from Signosis (Santa Clara, CA).
(§5) Cell viability was assessed based on the quantification of ATP using the CellTiter-Glo® assay (Promega, Madison, WI, USA). To determine the effect of compounds on cell viability, all Ba/F3 cell lines were plated at a cell density of 2000 cells/well in 384-well plates using RPMI 1640+10% FBS and treated with compounds of interest using a 10-point half-log dilution series in duplicate for 72 hours, with the highest dose set at […]. CellTiter-Glo® reagent was then added and luminescence signals were measured using an EnVision™ Multimode plate reader (Perkin Elmer, Santa Clara, CA). For data normalization, cells untreated with the test compounds at Time=72 hours were set to 100% (equivalent to maximal cell growth after 72 hours); cells untreated with the test compounds at Time=0 hours were set to 0% (equivalent to cytostasis); and media-only wells were set to −100% (equivalent to complete cytotoxicity). % Viability was determined by normalizing the signal with positive and DMSO treated negative controls on the same microtiter plate. The half-maximal inhibition of cell growth (GI50) is computed from where the fitted curve crosses 50% while the half-maximal lethal dose (LD50) is computed from where the fitted curve crosses −50%.

[2] = test system: BaF3 cells expressing EGFR L858R-L718Q; experiment: Ba/F3 EGFR cell viability (CellTiter-Glo), L858R-L718Q; conditions: Mus musculus, read-out: CTGlo (GI50)
Source text: as §4, §5

[3] = test system: BaF3 cells expressing EGFR L858R-T790M-L718Q; experiment: Ba/F3 EGFR cell viability (CellTiter-Glo), L858R-T790M-L718Q; conditions: Mus musculus, read-out: CTGlo (GI50)
Source text: as §4, §5

[4] = test system: BaF3 cells expressing EGFR L858R-L792H; experiment: Ba/F3 EGFR cell viability (CellTiter-Glo), L858R-L792H; conditions: Mus musculus, read-out: CTGlo (GI50)
Source text: as §4, §5

[5] = test system: BaF3 cells expressing EGFR L858R-T790M-L792H; experiment: Ba/F3 EGFR cell viability (CellTiter-Glo), L858R-T790M-L792H; conditions: Mus musculus, read-out: CTGlo (GI50)
Source text: as §4, §5

EGFR L858R-T790M-C797S = target: T3, EGFR L858R-T790M-C797S (Homo sapiens, UniProt P00533, C797S/L858R/T790M); experiment: EGFR degradation, Total EGFR (L858R-specific) HTRF, NCI-H1975+CS; conditions: 6 hours
T3 construct: generated using CRISPR technology to introduce the additional C797S mutation by Horizon Discovery; host or cells: NCI-H1975+CS (CRISPR knock-in of C797S)
How it was run: as §1

pY1068 EGFR L858R = target: T4, pY1068 EGFR L858R (Homo sapiens, UniProt P00533, L858R); experiment: Phospho-EGFR (pY1068) inhibition HTRF, NCI-H3255; conditions: 6 hours, read-out: pEGFR IC50
T4 construct: NCI-H3255 (harboring EGFR heterozygous L858R mutation); host or cells: NCI-H3255
Source text: as §2, §3

[6] = target: T5, pY1068 EGFR L858R-T790M-C797S (Homo sapiens, UniProt P00533, C797S/L858R/T790M); experiment: Phospho-EGFR (pY1068) inhibition HTRF, NCI-H1975+CS; conditions: 6 hours, read-out: pEGFR IC50
T5 construct: generated using CRISPR technology to introduce the additional C797S mutation by Horizon Discovery; host or cells: NCI-H1975+CS (CRISPR knock-in of C797S)
Source text: as §2, §3

EGFR L858R = EGFR L858R (Homo sapiens, UniProt P00533, L858R); experiment: EGFR degradation, Total EGFR (L858R-specific) HTRF, NCI-H3255; parameters: NCI-H3255 (harboring EGFR heterozygous L858R mutation); host or cells: NCI-H3255; conditions: 6 hours
How it was run: as §1

[7] = H1975 (L858R-T790M), read-out: tEGFR DC50
[8] = Table 9A, NCI-H1975 cells, Total EGFR HTRF, read-out: H1975 EGFR DC50

T1 sequence (P00533 25-1210 T790M/L858R): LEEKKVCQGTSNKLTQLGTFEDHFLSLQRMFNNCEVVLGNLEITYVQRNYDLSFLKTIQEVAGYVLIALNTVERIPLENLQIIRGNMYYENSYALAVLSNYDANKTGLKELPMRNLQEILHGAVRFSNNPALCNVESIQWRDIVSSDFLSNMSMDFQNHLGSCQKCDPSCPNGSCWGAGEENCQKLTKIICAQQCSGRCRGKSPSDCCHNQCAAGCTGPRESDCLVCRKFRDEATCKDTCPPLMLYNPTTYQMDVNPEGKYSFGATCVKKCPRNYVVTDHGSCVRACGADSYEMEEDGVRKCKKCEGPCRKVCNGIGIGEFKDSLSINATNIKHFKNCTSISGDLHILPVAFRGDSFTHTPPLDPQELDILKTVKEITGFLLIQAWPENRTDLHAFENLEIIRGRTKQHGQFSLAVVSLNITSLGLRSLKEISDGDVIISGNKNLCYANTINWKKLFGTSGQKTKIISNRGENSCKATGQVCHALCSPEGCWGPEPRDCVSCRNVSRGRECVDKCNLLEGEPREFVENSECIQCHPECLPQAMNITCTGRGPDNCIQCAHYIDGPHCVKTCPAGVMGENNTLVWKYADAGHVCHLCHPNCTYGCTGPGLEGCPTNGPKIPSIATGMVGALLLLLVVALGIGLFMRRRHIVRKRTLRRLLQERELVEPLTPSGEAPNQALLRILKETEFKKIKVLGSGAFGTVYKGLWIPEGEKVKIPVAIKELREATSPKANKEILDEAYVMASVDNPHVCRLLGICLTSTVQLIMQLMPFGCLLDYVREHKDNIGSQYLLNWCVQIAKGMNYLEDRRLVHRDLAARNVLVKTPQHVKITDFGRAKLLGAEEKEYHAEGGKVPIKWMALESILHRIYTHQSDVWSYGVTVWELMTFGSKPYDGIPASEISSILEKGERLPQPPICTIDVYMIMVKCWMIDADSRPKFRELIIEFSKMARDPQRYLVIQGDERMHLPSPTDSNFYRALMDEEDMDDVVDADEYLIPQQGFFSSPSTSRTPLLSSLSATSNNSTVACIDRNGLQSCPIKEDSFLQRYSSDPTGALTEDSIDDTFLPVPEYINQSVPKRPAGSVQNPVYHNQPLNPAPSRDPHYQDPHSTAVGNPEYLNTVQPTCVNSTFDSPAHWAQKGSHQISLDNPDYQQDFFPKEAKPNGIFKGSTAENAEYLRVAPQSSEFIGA
T2 sequence (P00533 25-1210 T790M/L858R): as above
T3 sequence (P00533 25-1210 T790M/C797S/L858R): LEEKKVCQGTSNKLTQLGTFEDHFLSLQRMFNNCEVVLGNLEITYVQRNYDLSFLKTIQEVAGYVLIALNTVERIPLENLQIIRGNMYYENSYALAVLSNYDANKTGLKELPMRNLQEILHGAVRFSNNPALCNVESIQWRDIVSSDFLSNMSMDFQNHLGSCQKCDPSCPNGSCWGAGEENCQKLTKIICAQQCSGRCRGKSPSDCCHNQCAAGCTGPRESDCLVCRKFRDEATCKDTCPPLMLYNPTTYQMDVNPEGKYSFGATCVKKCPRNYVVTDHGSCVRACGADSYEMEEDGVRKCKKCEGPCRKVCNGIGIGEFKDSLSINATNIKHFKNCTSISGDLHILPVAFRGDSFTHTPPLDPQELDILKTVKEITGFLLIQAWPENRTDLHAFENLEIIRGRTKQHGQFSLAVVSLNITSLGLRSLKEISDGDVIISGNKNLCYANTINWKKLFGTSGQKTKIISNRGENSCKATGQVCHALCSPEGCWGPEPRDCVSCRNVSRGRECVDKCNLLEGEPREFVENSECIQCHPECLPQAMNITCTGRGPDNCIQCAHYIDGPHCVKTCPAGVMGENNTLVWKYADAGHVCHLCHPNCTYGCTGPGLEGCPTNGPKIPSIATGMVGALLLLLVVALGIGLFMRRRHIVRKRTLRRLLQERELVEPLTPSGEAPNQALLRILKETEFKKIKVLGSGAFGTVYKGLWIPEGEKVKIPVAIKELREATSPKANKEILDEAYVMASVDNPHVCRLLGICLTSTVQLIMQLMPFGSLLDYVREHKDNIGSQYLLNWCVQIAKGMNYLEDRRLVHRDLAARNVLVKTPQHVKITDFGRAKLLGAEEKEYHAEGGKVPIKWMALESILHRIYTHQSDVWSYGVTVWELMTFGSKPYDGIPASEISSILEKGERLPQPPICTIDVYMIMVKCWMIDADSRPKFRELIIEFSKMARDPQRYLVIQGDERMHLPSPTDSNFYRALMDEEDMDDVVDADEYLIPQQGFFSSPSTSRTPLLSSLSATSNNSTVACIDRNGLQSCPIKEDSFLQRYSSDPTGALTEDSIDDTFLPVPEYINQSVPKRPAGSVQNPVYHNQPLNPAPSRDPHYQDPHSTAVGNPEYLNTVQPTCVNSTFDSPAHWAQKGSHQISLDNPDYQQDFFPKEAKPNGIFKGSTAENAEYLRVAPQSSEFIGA
Sequence of EGFR L858R (P00533 25-1210 L858R): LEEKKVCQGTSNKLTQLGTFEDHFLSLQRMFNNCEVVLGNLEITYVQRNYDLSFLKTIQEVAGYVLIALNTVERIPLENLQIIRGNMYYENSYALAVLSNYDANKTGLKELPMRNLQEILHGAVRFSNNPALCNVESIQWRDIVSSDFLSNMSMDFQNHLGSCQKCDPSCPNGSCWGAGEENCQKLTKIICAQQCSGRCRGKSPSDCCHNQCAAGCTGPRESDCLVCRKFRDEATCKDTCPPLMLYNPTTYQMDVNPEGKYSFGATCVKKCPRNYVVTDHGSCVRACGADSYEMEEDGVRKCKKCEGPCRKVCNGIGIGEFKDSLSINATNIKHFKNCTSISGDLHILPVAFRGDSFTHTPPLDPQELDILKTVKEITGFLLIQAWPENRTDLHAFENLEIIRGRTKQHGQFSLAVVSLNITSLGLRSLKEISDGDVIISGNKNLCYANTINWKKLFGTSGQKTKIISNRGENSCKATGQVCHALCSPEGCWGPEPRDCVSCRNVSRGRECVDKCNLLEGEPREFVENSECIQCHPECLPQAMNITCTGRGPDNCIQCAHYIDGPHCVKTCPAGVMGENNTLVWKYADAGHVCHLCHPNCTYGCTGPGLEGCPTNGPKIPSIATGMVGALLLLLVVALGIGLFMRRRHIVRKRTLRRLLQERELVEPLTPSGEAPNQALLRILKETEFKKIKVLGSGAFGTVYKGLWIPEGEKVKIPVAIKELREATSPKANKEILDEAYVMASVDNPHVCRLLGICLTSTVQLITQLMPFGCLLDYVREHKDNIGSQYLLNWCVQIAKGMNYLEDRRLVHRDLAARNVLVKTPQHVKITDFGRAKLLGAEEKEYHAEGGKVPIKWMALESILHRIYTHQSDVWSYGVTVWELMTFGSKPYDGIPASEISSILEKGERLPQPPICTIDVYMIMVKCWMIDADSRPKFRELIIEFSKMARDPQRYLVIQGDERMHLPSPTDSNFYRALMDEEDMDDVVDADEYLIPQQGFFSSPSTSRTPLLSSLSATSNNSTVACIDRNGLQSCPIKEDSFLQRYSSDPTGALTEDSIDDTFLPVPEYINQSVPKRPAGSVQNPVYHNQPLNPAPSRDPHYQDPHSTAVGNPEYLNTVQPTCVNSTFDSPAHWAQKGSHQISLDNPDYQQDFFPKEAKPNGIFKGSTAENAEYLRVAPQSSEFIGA

SMILES	DC50 (EGFR L858R-T790M; [7])	DC50 (EGFR L858R-T790M; [8])	IC50 (pY1068 EGFR L858R-T790M)	GI50 [1]	GI50 [2]	GI50 [3]	GI50 [4]	GI50 [5]	other results
O=C1CC[C@H](Nc2ccc(N3CCC(O)(CC(=O)N4CC5(CCN(c6ccc(-c7cc(F)c8c(c7)C(=O)N(C(C(=O)Nc7nccs7)c7ncn9c7CCC9)C8)cc6)CC5)C4)CC3)c(F)c2)C(=O)N1 (stereo partly shown) [Compound 12]	15 nM	< 50 nM	20 nM						
O=C1CCN(c2ccc(N3CCC(O)(CC(=O)N4CC5(C4)CN(c4ccc(-c6cc(F)c7c(c6)C(=O)N(C(C(=O)Nc6nccs6)c6ncn8c6CCC8)C7)cc4)C5)CC3)c(Cl)c2)C(=O)N1 (stereo not shown) [Compound 8, 2-[6-[4-[2-[2-[1-[2-chloro-4-(2,4-dioxohexahydropyrimidin-1-yl)phenyl]-4-hydroxy-4-piperidyl]acetyl]-2,6-diazaspiro[3.3]heptan-6-yl]phenyl]-4-fluoro-1-oxo-isoindolin-2-yl]-2-(6,7-dihydro-5H-pyrrolo[1,2-c]imidazol-1-yl)-N-thiazol-2-yl-acetamide]	23 nM	< 50 nM	22 nM	13 nM	2020 nM	403 nM	213 nM	45 nM	
O=C1CCC(Nc2ccc(N3CCC(O)(CC(=O)N4CC5(C4)CN(c4ccc(-c6cc(F)c7c(c6)C(=O)N(C(C(=O)Nc6nccs6)c6ncn8c6CCC8)C7)cc4)C5)CC3)c(Cl)c2)C(=O)N1 (single isomer, unassigned; isomer 1) [Compound 7, 2-(6-(4-(6-(2-(1-(2-chloro-4-((2,6-dioxopiperidin-3-yl)amino)phenyl)-4-hydroxypiperidin-4-yl)acetyl)-2,6-diazaspiro[3.3]heptan-2-yl)phenyl)-4-fluoro-1-oxoisoindolin-2-yl)-2-(6,7-dihydro-5H-pyrrolo[1,2-c]imidazol-1-yl)-N-(thiazol-2-yl)acetamide, isomer 1]	15 nM	< 50 nM	17 nM	10 nM	17 nM	45 nM	7 nM	23 nM	
O=C1CCC(Nc2ccc(C3CCN(CC(=O)N4CC5(C4)CN(c4ccc(-c6cc(F)c7c(c6)C(=O)N(C(C(=O)Nc6nccs6)c6ncn8c6CCC8)C7)cc4)C5)CC3(F)F)cc2)C(=O)N1 (single isomer, unassigned) [Compound 4, 2-(6,7-dihydro-5H-pyrrolo[1,2-c]imidazol-1-yl)-2-(6-(4-(6-(2-(4-(4-((2,6-dioxopiperidin-3-yl)amino)phenyl)-3,3-difluoropiperidin-1-yl)acetyl)-2,6-diazaspiro[3.3]heptan-2-yl)phenyl)-4-fluoro-1-oxoisoindolin-2-yl)-N-(thiazol-2-yl)acetamide]	15 nM	< 50 nM	15 nM						DC50 (EGFR L858R-T790M-C797S; H1975 + CS (L858R-T790M-C797S), read-out: tEGFR DC50): 33 nM; IC50 (pY1068 EGFR L858R): 16 nM; IC50 [6]: 22 nM; DC50 (EGFR L858R; H3255 (L858R), read-out: tEGFR DC50): 17 nM
O=C1CC[C@H](Nc2ccc(N3CCC(O)(CC(=O)N4CCC5(CC4)CN(c4ccc(-c6cc(F)c7c(c6)C(=O)N(C(C(=O)Nc6nccs6)c6ncn8c6CCC8)C7)cc4)C5)CC3)c(F)c2)C(=O)N1 (stereo partly drawn) [Compound 9, 2-(6,7-dihydro-5H-pyrrolo[1,2-c]imidazol-1-yl)-2-[6-[4-[7-[2-[1-[4-[[(3S)-2,6-dioxo-3-piperidyl]amino]-2-fluoro-phenyl]-4-hydroxy-4-piperidyl]acetyl]-2,7-diazaspiro[3.5]nonan-2-yl]phenyl]-4-fluoro-1-oxo-isoindolin-2-yl]-N-thiazol-2-yl-acetamide]	24 nM	< 50 nM	30 nM	16 nM	23 nM	82 nM	10 nM	33 nM	
O=C1CCC(Nc2ccc(C3CCN(CC(=O)N4CCN(c5ccc(-c6cc(F)c7c(c6)C(=O)N(C(C(=O)Nc6ccccn6)c6ncn8c6CCC8)C7)cc5)CC4)CC3)c(F)c2)C(=O)N1 (stereo not shown) [Compound 20, 2-(6,7-dihydro-5H-pyrrolo[1,2-c]imidazol-1-yl)-2-[6-[4-[4-[2-[4-[4-[(2,6-dioxo-3-piperidyl)amino]-2-fluoro-phenyl]-1-piperidyl]acetyl]piperazin-1-yl]phenyl]-4-fluoro-1-oxo-isoindolin-2-yl]-N-(2-pyridyl)acetamide]		50 to 150 nM							DC50 (EGFR L858R-T790M-C797S; Table 9A, NCI-H1975+CS cells, Total EGFR HTRF, read-out: H1975+ CS EGFR DC50): < 50 nM; DC50 (EGFR L858R; Table 9A, NCI-H3255 cells, Total EGFR HTRF, read-out: H3255 EGFR DC50): < 50 nM
Cn1nc(N2CCC(=O)NC2=O)c2ccc([C@@H]3CCN(CC(=O)N4CC5(C4)CN(c4ccc(-c6cc(F)c7c(c6)C(=O)N(C(C(=O)Nc6nccs6)c6ncn8c6CCC8)C7)cc4)C5)CC3(F)F)cc21 (stereo partly drawn) [Compound 94, 2-(6,7-dihydro-5H-pyrrolo[1,2-c]imidazol-1-yl)-2-(6-(4-(6-(2-((S)-4-(3-(2,4-dioxotetrahydropyrimidin-1(2H)-yl)-1-methyl-1H-indazol-6-yl)-3,3-difluoropiperidin-1-yl)acetyl)-2,6-diazaspiro[3.3]heptan-2-yl)phenyl)-4-fluoro-1-oxoisoindolin-2-yl)-N-(thiazol-2-yl)acetamide]									DC50 (EGFR L858R-T790M; Table 9B, NCI-H1975 cells, Total EGFR HTRF, read-out: H1975 EGFR DC50): < 50 nM; DC50 (EGFR L858R-T790M-C797S; Table 9B, NCI-H1975 C797S clone, Total EGFR HTRF, read-out: H1975 C797S clone EGFR DC50): < 50 nM; DC50 (EGFR L858R; Table 9B, NCI-H3255 cells, Total EGFR HTRF, read-out: H3255 EGFR DC50): < 50 nM
